# Experimental data as given in patent US11306125B2, “PCSK9 antagonists bicyclo-compounds” (Merck Sharp & Dohme Corp., priority 2018, dated 2022).
# Starred links: 1 amine or outer side, 2 acyl side, 3 side chain; linkers in the order of their positions; H or OH if unused. Positions of bridges follow the written chain, without caps; N, C: chain ends. Non-standard residues stand in square brackets, D forms with d. Residues, ends and D or L forms follow the SMILES beside them. *: point of attachment. X2 = CC1(C)C(/C=C/C=C/C=C2\N(CCCS(=O)(=O)O)c3ccc(S(=O)(=O)O)cc3C2(C)CCCCCC(=O)*)=[N+](CCCS(=O)(=O)[O-])c2ccc(S(=O)(=O)O)cc21; Phe(3-CH2NH2) = O=C([C@H](Cc1cccc(CN[*:3])c1)N[*:1])[*:2]; Me3N+(CH2)2O(CH2)2O(CH2)2CO = C[N+](C)(C)CCOCCOCCC(=O)*; Trp(5-F) = N[C@@H](Cc1c[nH]c2ccc(F)cc12)C(=O)O; X1 = O=C(CCC(=O)[*:1])NCc1ccc(CCN[*:2])cc1; mXylylene = c1cc(C[*:1])cc(C[*:2])c1; AEF = NCCOc1ccc(C[C@H](N)C(=O)O)cc1; Glutaryl = O=C(CCCC(=O)[*:2])[*:1]; NMeE = CN[C@@H](CCC(=O)O)C(=O)O; αMeP = C[C@@]1(C(=O)O)CCCN1; dDap = NC[C@@H](N)C(=O)O; Dap = NC[C@H](N)C(=O)O; Boc = CC(C)(C)OC(=O)*; Mpa = O=C(O)CCS; tBu = CC(C)(C)*
# Experiments:
# Type in all cases: binding
# PCSK9 [1] = molecular target: T1, PCSK9 (Homo sapiens, UniProt Q8NBP7); assay: PCSK9 Alexa FRET Plus TR-FRET assay
# T1 construct: purchased
# T1 sequence (Q8NBP7 153-692): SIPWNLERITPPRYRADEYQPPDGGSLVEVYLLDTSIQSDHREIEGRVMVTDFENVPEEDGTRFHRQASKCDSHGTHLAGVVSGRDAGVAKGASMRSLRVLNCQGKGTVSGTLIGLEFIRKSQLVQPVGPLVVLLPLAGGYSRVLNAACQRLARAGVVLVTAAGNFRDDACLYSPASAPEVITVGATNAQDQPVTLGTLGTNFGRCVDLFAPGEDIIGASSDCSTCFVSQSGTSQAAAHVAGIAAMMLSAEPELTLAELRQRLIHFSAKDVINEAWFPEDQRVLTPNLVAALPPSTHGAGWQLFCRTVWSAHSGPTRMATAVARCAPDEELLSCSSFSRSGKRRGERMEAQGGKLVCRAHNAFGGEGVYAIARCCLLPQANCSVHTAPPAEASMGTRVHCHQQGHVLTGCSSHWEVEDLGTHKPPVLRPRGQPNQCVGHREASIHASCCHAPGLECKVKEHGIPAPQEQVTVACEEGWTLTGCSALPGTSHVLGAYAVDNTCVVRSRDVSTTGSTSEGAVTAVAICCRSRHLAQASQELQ
# Description: A solution containing 1 nM biotinylated PCSK9+2.5 nM Lance Streptavidin Europium (Strep-Eu) is made in 50 mM HEPES pH 7.4, 0.15 M NaCl, 5 mM CaCl2, 0.01% BSA, and 0.01% Surfactant P20. A separate solution containing 1920 nM of the AlexaFluor tagged cyclic peptide is made in the same buffer system. An Echo is used to transfer 0.075 ul of compound plus 0.675 ul of DMSO to each well of an assay plate followed by the addition of 15 ul of PCSK9+Stept-Eu and 15 ul of AF peptide. The final assay volume is 30.750 ul containing 0.5 nM PCSK9, 1.25 nM Strep-Eu, and 960 nM AF cyclic peptide. The reaction is incubated at room temperature for at least two hours prior to fluorescence measurements using an Envision Multilabel Reader. IC50 values are determined by fitting data to a sigmoidal dose-response curve using nonlinear regression. Ki is then calculated from the IC50 and the KD of AF cyclic peptide. Counts (B-counts) of the europium-labeled PCSK9 are followed to observe if compounds are adversely affecting PCSK9. A fall off of the B-counts is likely indicates a false positive of inhibition. Data from this procedure is reported as “P=‘numerical value’ (nanomolar)”
# PCSK9 [2] = molecular target: T1, PCSK9; assay: PCSK9 Alexa FRET Standard TR-FRET assay
# Description: A solution containing 1 nM biotinylated PCSK9+2.5 nM Lance Streptavidin Europium (Strep-Eu) is made in 50 mM HEPES pH 7.4, 0.15 M NaCl, 5 mM CaCl2, 0.01% BSA, and 0.01% Surfactant P20. […] An Echo is used to transfer 0.750 ul of compound to an assay plate followed by the addition of 15 ul of PCSK9+Stept-Eu and 15 ul of AF peptide. […] The reaction is incubated at room temperature for at least two hours prior to fluorescence measurements using an Envision Multilabel Reader. IC50 values are determined by fitting data to a sigmoidal dose-response curve using nonlinear regression. Ki is then calculated from the Ic50 and the KD of AF cyclic peptide. Counts (B-counts) of the europium-labeled PCSK9 are followed to observe if compounds are adversely PCSK9. A fall off of the B-counts is likely indicates a false positive of inhibition. Data from this procedure is reported as “A=‘numerical value’ (nanomolar)”
# PCSK9 [3] = molecular target: T1, PCSK9; assay: KD of the AlexaFluor647 tagged cyclic peptide probes for PCSK9; conditions: AF tagged cyclic peptide probe, interaction with PCSK9
# [4] = displacement of AlexaFluor647 tagged cyclic peptide Reagent B (960 nM) from biotinylated PCSK9 (0.5 nM), read-out: Plus / P (Alexa Fret plus standard TR Fret), Ki calculated from the IC50 and the KD of AF cyclic peptide
# [5] = displacement of AlexaFluor647 tagged cyclic peptide Reagent A (20 nM) from biotinylated PCSK9 (0.5 nM), read-out: A (standard TR Fret), Ki calculated from the IC50 and the KD of AF cyclic peptide
Structure (SMILES),Ki (PCSK9 [2]; [5]) [nM],Ki (PCSK9 [1]) [nM],Ki (PCSK9 [2]) [nM],further results
COc1ccc(C[C@@H]2NC(=O)[C@H]([C@@H](C)O)NC(=O)[C@@H]3[C@@H]4CCN3C(=O)[C@H](Cc3c[nH]c5ccc(F)cc35)NC(=O)[C@H](Cc3cccc(c3)CNC(=O)CO4)NC(=O)[C@@H](C)NC(=O)[C@H](CN)NC(=O)CCC(=O)NCc3ccc(cc3)CCNC(=O)[C@]3(C)CCCN3C2=O)cc1 [Ex-B01],–,1.24,2.04,–
COc1ccc(C[C@@H]2NC(=O)[C@H]([C@@H](C)O)NC(=O)[C@@H]3[C@@H]4CCN3C(=O)[C@H](Cc3c[nH]c5ccc(F)cc35)NC(=O)[C@H](Cc3cccc(c3)CNC(=O)CO4)NC(=O)[C@@H](C)NC(=O)[C@H](CNC(=O)CCOCCOCC[N+](C)(C)C)NC(=O)CCC(=O)NCc3ccc(cc3)CCNC(=O)[C@]3(C)CCCN3C2=O)cc1 [Ex-B02],–,2.19,4.02,–
COc1ccc(C[C@@H]2NC(=O)[C@H]([C@@H](C)O)NC(=O)[C@@H]3[C@@H]4CCN3C(=O)[C@H](Cc3c[nH]c5ccc(F)cc35)NC(=O)[C@H](Cc3cccc(c3)CNC(=O)CO4)NC(=O)C(CN)NC(=O)[C@H](C)NC(=O)CCC(=O)NCc3ccc(cc3)CCNC(=O)[C@]3(C)CCCN3C2=O)cc1 (stereo partly shown) [Ex-B03],–,0.008,< 1.26,–
COc1ccc(C[C@@H]2NC(=O)[C@H]([C@@H](C)O)NC(=O)C[C@@H]3[C@@H]4CCN3C(=O)[C@H](Cc3c[nH]c5ccc(F)cc35)NC(=O)[C@H](Cc3cccc(c3)CNC(=O)CO4)NC(=O)[C@@H](CNC(=O)CCOCCOCC[N+](C)(C)C)NC(=O)[C@H](C)NC(=O)CCC(=O)NCc3ccc(cc3)CCNC(=O)[C@]3(C)CCCN3C2=O)cc1 [Ex-B04],< 1.26,–,–,Ki (PCSK9 [1]; [4]): 0.02 nM
"COc1ccc(C[C@@H]2NC(=O)[C@H]([C@@H](C)O)NC(=O)[C@@H]3CCC(=O)NCc4cccc(c4)C[C@H](NC(=O)[C@@H](C)NC(=O)[C@H](C)NC(=O)[C@@H](NC(C)=O)CC(=O)NCCOc4ccc(cc4)C[C@@H](C(N)=O)NC(=O)[C@]4(C)CCCN4C2=O)C(=O)N[C@@H](Cc2c[nH]c4ccc(F)cc24)C(=O)N3C)cc1 [Ex-C01] (Ac-DA[dA][Phe(3-CH2NH2)][Trp(5-F)][NMeE]TY(Me)[αMeP][AEF]-NH2; lactam 1-10, 4-6)",27.8,–,–,–
COc1ccc(C[C@@H]2NC(=O)[C@H]([C@@H](C)O)NC(=O)[C@@H]3CCC(=O)NCc4cccc(c4)C[C@H](NC(=O)[C@@H](C)NC(=O)CCCC(=O)NCCOc4ccc(cc4)C[C@@H](C(N)=O)NC(=O)[C@]4(C)CCCN4C2=O)C(=O)N[C@@H](Cc2c[nH]c4ccc(F)cc24)C(=O)N3C)cc1 [Ex-C02] ([dA][Phe(3-CH2NH2)][Trp(5-F)][NMeE]TY(Me)[αMeP][AEF]-NH2; lactam 2-4; linker N-8 via Glutaryl),151,–,–,–
COc1ccc(C[C@@H]2NC(=O)[C@H]([C@@H](C)O)NC(=O)[C@@H]3CCC(=O)NCc4cccc(c4)C[C@H](NC(=O)[C@@H](C)NC(=O)[C@H](CN)NC(=O)CCC(=O)NCc4ccc(cc4)CCNC(=O)[C@]4(C)CCCN4C2=O)C(=O)N[C@@H](Cc2c[nH]c4ccc(F)cc24)C(=O)N3C)cc1 [Ex-C04] ([Dap][dA][Phe(3-CH2NH2)][Trp(5-F)][NMeE]TY(Me)[αMeP]; lactam 3-5; linker N-C via X1),4.24,–,–,–
COc1ccc(C[C@@H]2NC(=O)[C@H]([C@@H](C)OC(C)(C)C)NC(=O)[C@@H]3CCC(=O)NCc4cccc(c4)C[C@H](NC(=O)[C@@H](CNC(=O)OC(C)(C)C)NC(=O)[C@H](C)NC(=O)CCC(=O)NCc4ccc(cc4)CCNC(=O)[C@]4(C)CCCN4C2=O)C(=O)N[C@@H](Cc2c[nH]c4ccc(F)cc24)C(=O)N3C)cc1 [Ex-C05] (A[dDap](Boc)[Phe(3-CH2NH2)][Trp(5-F)][NMeE]T(tBu)Y(Me)[αMeP]; lactam 3-5; linker N-C via X1),< 1.26,–,–,Ki (PCSK9 [1]; [4]): 4.37 nM
COc1ccc(C[C@@H]2NC(=O)[C@H]([C@@H](C)O)NC(=O)[C@@H]3CCC(=O)NCc4cccc(c4)C[C@H](NC(=O)[C@@H](CN)NC(=O)[C@H](C)NC(=O)CCC(=O)NCc4ccc(cc4)CCNC(=O)[C@]4(C)CCCN4C2=O)C(=O)N[C@@H](Cc2c[nH]c4ccc(F)cc24)C(=O)N3C)cc1 [Ex-C06] (A[dDap][Phe(3-CH2NH2)][Trp(5-F)][NMeE]TY(Me)[αMeP]; lactam 3-5; linker N-C via X1),15.9,–,–,–
COc1ccc(C[C@@H]2NC(=O)[C@H]([C@H](C)O)NC(=O)[C@@H]3[C@@H]4CCN3C(=O)[C@H](Cc3c[nH]c5ccc(F)cc35)NC(=O)[C@H](Cc3cccc(c3)Cn3cc(nn3)CO4)NC(=O)[C@@H](C)NC(=O)[C@H](CNC(=O)CCOCCOCC[N+](C)(C)C)NC(=O)CCC(=O)NCc3ccc(cc3)C[C@@H](C(N)=O)NC(=O)[C@]3(C)CCCN3C2=O)cc1 [Ex-OT-05],–,0.19,< 1.26,–
COc1ccc(C[C@@H]2NC(=O)[C@H]([C@@H](C)O)NC(=O)[C@@H]3[C@@H]4CCN3C(=O)[C@H](Cc3c[nH]c5ccc(F)cc35)NC(=O)[C@H](Cc3cccc(c3)Cn3cc(nn3)CO4)NC(=O)[C@@H](C)NC(=O)[C@H](CNC(=O)CCOCCOCC[N+](C)(C)C)NC(=O)CCC(=O)NCc3ccc(cc3)CCNC(=O)[C@]3(C)CCCN3C2=O)cc1 [Ex-OT-06],–,0.29,< 1.26,–
CC1(C)C(/C=C/C=C/C=C2\N(CCCS(=O)(=O)O)c3ccc(S(=O)(=O)O)cc3C2(C)CCCCCC(=O)NCCCC[C@@H]2NC(=O)CCSCc3cccc(c3)CSC[C@@H](C(N)=O)NC(=O)[C@]3(C)CCCN3C(=O)[C@H](Cc3ccc(O)cc3)NC(=O)[C@H](Cc3c[nH]cn3)NC(=O)[C@H](CC(=O)O)NC(=O)[C@H](Cc3c[nH]c4ccc(F)cc34)NC(=O)[C@H](Cc3c[nH]c4ccc(F)cc34)NC(=O)CNC2=O)=[N+](CCCS(=O)(=O)[O-])c2ccc(S(=O)(=O)O)cc21 (stereo partly shown) [Reagent A] ([Mpa]K(X2)G[Trp(5-F)][Trp(5-F)]DHY[αMeP]C-NH2; linker 1-10 via mXylylene),–,–,–,Kd (PCSK9 [3]): 83 nM

# More lines, main results first:
Ki (PCSK9 [2]; [5]) [nM],Structure (SMILES),Ki (PCSK9 [1]) [nM],Ki (PCSK9 [2]) [nM],further results
18.4,COc1ccc(C[C@@H]2NC(=O)[C@H]([C@@H](C)O)NC(=O)[C@@H]3CCC(=O)NCc4cccc(c4)C[C@H](NC(=O)[C@@H](C)NC(=O)[C@H](CNC(=O)CCOCCOCC[N+](C)(C)C)NC(=O)CCC(=O)NCc4ccc(cc4)CCNC(=O)[C@]4(C)CCCN4C2=O)C(=O)N[C@@H](Cc2c[nH]c4ccc(F)cc24)C(=O)N3C)cc1 [Ex-C03] ([Dap](Me3N+(CH2)2O(CH2)2O(CH2)2CO)[dA][Phe(3-CH2NH2)][Trp(5-F)][NMeE]TY(Me)[αMeP]; lactam 3-5; linker N-C via X1),–,–,–
7.17,COc1ccc(C[C@@H]2NC(=O)[C@H]([C@@H](C)O)NC(=O)[C@@H]3CCC(=O)NCc4cccc(c4)C[C@H](NC(=O)[C@@H](CNC(=O)CCOCCOCC[N+](C)(C)C)NC(=O)[C@H](C)NC(=O)CCC(=O)NCc4ccc(cc4)CCNC(=O)[C@]4(C)CCCN4C2=O)C(=O)N[C@@H](Cc2c[nH]c4ccc(F)cc24)C(=O)N3C)cc1 [Ex-C07] (A[dDap](Me3N+(CH2)2O(CH2)2O(CH2)2CO)[Phe(3-CH2NH2)][Trp(5-F)][NMeE]TY(Me)[αMeP]; lactam 3-5; linker N-C via X1),–,–,–
< 1.26,COc1ccc(C[C@@H]2NC(=O)[C@H]([C@H](C)O)NC(=O)[C@@H]3[C@@H]4CCN3C(=O)[C@H](Cc3c[nH]c5ccc(F)cc35)NC(=O)[C@H](Cc3cccc(c3)Cn3cc(nn3)CO4)NC(=O)[C@@H](C)NC(=O)[C@H](C)NC(=O)[C@@H](NC(C)=O)CC(=O)NCc3ccc(cc3)C[C@@H](C(N)=O)NC(=O)[C@]3(C)CCCN3C2=O)cc1 [Ex-OT-03],–,–,Ki (PCSK9 [1]; [4]): 0.32 nM
< 1.26,COc1ccc(C[C@@H]2NC(=O)[C@H]([C@H](C)O)NC(=O)[C@@H]3[C@@H]4CCN3C(=O)[C@H](Cc3c[nH]c5ccc(F)cc35)NC(=O)[C@H](Cc3cccc(c3)Cn3cc(nn3)CO4)NC(=O)[C@@H](C)NC(=O)[C@H](CCCC[N+](C)(C)C)NC(=O)CCC(=O)NCc3ccc(cc3)C[C@@H](C(N)=O)NC(=O)[C@]3(C)CCCN3C2=O)cc1 [Ex-OT-04],–,–,Ki (PCSK9 [1]; [4]): 0.32 nM
